According to PubChem BioAssay (NCI):
Where “and” joins values, the source holds several entries; their conditions need not be identical. Identical values can stand only once.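 96-well plates; 48 h exposure; 5 concentrations. Endpoints by linear interpolation between flanking doses. Not reached: highest tested concentration assigned. The concentration for 50% growth inhibition is given as GI50. At the TGI there is no net growth.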

Tests used:
Assay in all cases: NCI-60 cell line screen, 48 h
NCI-H23 lung = test system: NCI-H23 lung
SN12C renal = test system: SN12C renal
SNB-75 CNS = test system: SNB-75 CNS
OVCAR-5 ovarian = test system: OVCAR-5 ovarian
SW-620 colon = test system: SW-620 colon
HT29 colon = test system: HT29 colon
HCT-116 colon = test system: HCT-116 colon
NCI-H522 lung = test system: NCI-H522 lung
HCT-15 colon = test system: HCT-15 colon
HS 578T breast = test system: HS 578T breast

| Structure (SMILES) | TGI (NCI-H23 lung) [µM] | TGI (SN12C renal) [µM] | TGI (SNB-75 CNS) [µM] | TGI (OVCAR-5 ovarian) [µM] | TGI (SW-620 colon) | TGI (HT29 colon) [µM] | TGI (HCT-116 colon) | TGI (NCI-H522 lung) [µM] | TGI (HCT-15 colon) | GI50 (NCI-H23 lung) [µM] | GI50 (OVCAR-5 ovarian) [µM] | GI50 (SW-620 colon) [µM] | GI50 (NCI-H522 lung) [µM] | GI50 (HS 578T breast) [µM] | TGI (HS 578T breast) [µM] | GI50 (HT29 colon) [µM] | GI50 (HCT-116 colon) [µM] | GI50 (HCT-15 colon) [µM] | GI50 (SN12C renal) [µM] | GI50 (SNB-75 CNS) [µM] |
| --- | --- | --- | --- | --- | --- | --- | --- | --- | --- | --- | --- | --- | --- | --- | --- | --- | --- | --- | --- | --- |
| CCCCCC/C(CC(=O)CCC(=O)NCCc1ccccc1)=N\NC(=O)c1ccc2ccccc2c1O | > 100 | > 100 | > 100 | 54.2 | > 100 µM | > 100 | > 100 µM |  |  |  |  |  |  |  |  |  |  |  |  |  |
| N#CCCn1c(CCC(=O)Nc2ccc(Cl)cc2Cl)n[nH]c1=S | > 100 | > 100 | > 100 | > 100 | > 100 µM | > 100 | > 100 µM | > 100 | > 100 µM |  |  |  |  |  |  |  |  |  |  |  |
| COc1ccc(S(=O)(=O)N/N=C/CN2C(=O)c3ccccc3C2=O)cc1 | > 100 | > 100 | > 100 |  | > 100 µM | > 100 |  | > 100 | > 100 µM |  |  |  |  |  |  |  |  |  |  |  |
| C=C1C(OCCO)OC2O[C@]3(C)CCC4[C@H](C)CCC1C24OO3 (some centres undefined) | 53.6 |  |  | > 100 | > 100 µM | > 100 | > 100 µM | 19.2 | > 100 µM | 7.46 | 19.6 | 10.9 | 4.93 | 19.9 | > 100 | 7.54 | 8.69 | 3.88 |  |  |
| CC(=O)Nc1ccccc1S(=O)c1ccccc1 (centres undefined) | > 100 | > 100 | > 100 | > 100 | > 100 µM | > 100 | > 100 µM | > 100 | > 100 µM |  |  |  |  |  |  |  |  |  |  |  |
| CN/N=C(/CC(=O)c1sc(NNC(C)=O)nc1C)C(=O)Nc1ccc(OC)cc1OC | > 100 | > 100 |  | > 100 | > 100 µM | > 100 | > 100 µM | > 100 | > 100 µM |  |  |  |  |  |  |  |  |  |  |  |
| C=C1CC(CC(=O)C(C)CC2CC(=C)C(=O)O2)OC1=O (centres undefined) | 35.8 | 34.1 | > 100 | > 100 | 24.2 µM | 63.2 | 24.6 µM |  | 36.7 µM |  |  |  |  |  |  |  |  |  |  |  |
| CC(=O)N1CCN(C=S)CC1 | > 100 | > 100 | > 100 | > 100 | > 100 µM | > 100 | > 100 µM | > 100 | > 100 µM |  |  |  |  |  |  |  |  |  |  |  |
| ClCCCN1CCCCC1CCl (centres undefined) | > 100 | > 100 | > 100 | > 100 | > 100 µM | > 100 | > 100 µM | > 100 | > 100 µM |  |  |  |  |  |  |  |  |  |  |  |
| CCCNC(=O)Nc1ccc2c(c1)Cc1cc(N(CCCl)CCCl)ccc1-2 | > 100 | > 100 |  | > 100 | > 100 µM | 17.8 | > 100 µM | 41 | > 100 µM |  |  |  |  |  | 61.4 |  |  |  |  |  |
| C[C@H](CCCOS(C)(=O)=O)[C@H]1CC[C@H]2[C@@H]3CC[C@@H]4C[C@H](OS(C)(=O)=O)CC[C@]4(C)[C@H]3CC[C@]12C |  |  |  | > 2500 | > 2500 µM | > 2500 | 1240 µM | 961 | > 2500 µM | 286 | 391 | > 2500 | 398 | 423 |  | 1920 | 532 | 1020 | 799 |  |
| O=C(OCc1ccccc1)c1ccccc1-c1c2ccc(=O)cc-2oc2cc(OCc3ccccc3)ccc12 | 49.6 | 74.4 |  | > 100 | > 100 µM | 55.5 | 57.7 µM |  | 63.3 µM |  |  |  |  |  |  |  |  |  |  |  |
| COc1ccc2c(c1)NC(=O)CN2c1nc(C)nc2ccccc12 | > 100 | > 100 | > 100 | > 100 | > 100 µM |  | > 100 µM |  | > 100 µM | 0.000458 |  | 0.000487 |  | 0.000601 | > 100 | 0.000307 | 0.000369 | 0.000413 | 0.00101 | 0.00036 |
| CN(C)c1ccc(/C=c2\sc3nnc(Cc4ccccc4)n3c2=O)cc1 | > 100 | > 100 | > 100 | > 100 | > 10 µM and 29.2 µM | > 100 | > 10 µM and 35.4 µM | > 100 | > 10 µM and 37.8 µM | > 100 | > 100 | > 10 | > 100 |  |  | > 10 | > 10 | > 10 | > 100 | > 100 |
| COc1ccc([Se]c2ccc(OC)cc2)cc1 | > 100 | > 100 | 96.8 |  | > 100 µM | > 100 | > 100 µM | > 100 | > 100 µM |  |  |  |  |  |  |  |  |  |  |  |
| CCC12C=CCN3CCC4(C(=C(C(=O)OC)C1)Nc1ccccc14)[C@H]32 (some centres undefined) | 93.6 |  | 69 | > 100 | 86 µM | 46.8 | > 100 µM | 49.4 | > 100 µM |  |  |  |  |  |  |  |  |  |  |  |
| NNC(=O)N/N=C1/C(=O)N(c2ccc(Cl)c(Cl)c2)C(=O)C(=O)C1c1nc2ccccc2o1 (centres undefined) | > 100 | > 100 | > 100 | > 100 | > 100 µM | > 100 | > 100 µM | > 100 | > 100 µM |  |  |  |  |  |  |  |  |  |  |  |
| CC1(C)N=C(N)N=C(N)N1c1ccc(CCC(=O)Nc2cccc(S(=O)(=O)F)c2)cc1 | > 100 | > 100 | > 100 | > 100 | > 100 µM | > 100 | > 100 µM |  | > 100 µM | 7.78 | > 100 | 5.87 |  | > 100 | > 100 | 5.62 | 3.96 | 30.7 | 4.67 | 5.34 |
| CCN1C(=O)N(CC)C2C1NN=c1s/c(=C\c3cnc(C)n3C)c(=O)n12 (centres undefined) | > 100 | > 100 | 3.44 | > 100 | > 100 µM |  | > 100 µM | 4.34 | > 100 µM | 3.17 | 3.68 | 2.01 | 1.33 |  |  |  | 2.43 | 3.42 | 4.64 | 0.324 |
| COc1ccc(-c2cc(=O)c3cccnc3[nH]2)cc1 | > 100 | > 100 |  | > 100 | > 100 µM | 38.4 | 80.3 µM | > 100 | > 100 µM |  |  |  |  |  | > 100 |  | 17.6 |  |  |  |
| C#Cc1ccccc1N1C(=O)C=CC1=O | > 100 | > 100 | > 100 | > 100 | > 100 µM | > 100 | > 100 µM | > 100 |  |  |  |  |  |  |  |  |  |  |  |  |
